pIC50: −log10 of the molar value. Bounds are passed on as bounds.

In this experiment the target is T1, recombinant human GST-SYK (Homo sapiens, UniProt P43405).
T1 construct: purchased Carna Biosciences 08-176
Nature of the experiment: Homogeneous Time-Resolved Fluorescence (HTRF) assay for the recombinant human Syk enzyme. The experiment is classed as biochemical. Conditions: HTRF assay, recombinant human GST-SYK; IC50 given as class symbols; read-out: rhSYK Activity. In outline:
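HTRF read-out: Europium-anti-phosphotyrosine antibody (2 nM) plus SA-APC (70 nM) in EDTA-containing buffer quenched the reaction, and signal was read after 30 minutes. Kinase step used […], 250 nM biotinylated peptide, 25 μM ATP, 5 mM Mg, 45′ at room temperature.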
In general terms: Time-resolved FRET reads energy transfer from a long-lived donor to a nearby acceptor.
As to `Cc1cc(Nc2nccc(C(F)(F)F)n2)cc(-c2ccnc(NCc3cnn(C)c3)c2)c1` [Example 15.35, N-[3-methyl-5-(2-{[(1-methyl-1H-pyrazol-4-yl)methyl]amino}pyridin-4-yl)phenyl]-4-(trifluoromethyl)pyrimidin-2-amine], the pIC50 was 6.00 to 7.00.

As to `Cc1cc(Nc2nccc(C(F)(F)F)n2)cc(-c2ccnc(N3CCCC34CCNC4=O)c2)c1` (centres unmarked) [Example 15.36, 1-[4-(3-methyl-5-{[4-(trifluoromethyl)pyrimidin-2-yl]amino}phenyl)pyridin-2-yl]-1,7-diazaspiro[4.4]nonan-6-one], the pIC50 is 6.00 to 7.00.

With `CCC(CO)Nc1cc(-c2cc(C)cc(Nc3nccc(C(F)(F)F)n3)c2)ccn1` (centres unmarked) [Example 15.37, 2-{[4-(3-methyl-5-{[4-(trifluoromethyl)pyrimidin-2-yl]amino}phenyl)pyridin-2-yl]amino}butan-1-ol], the pIC50 was above 7.00.

With `Cc1cc(Nc2nccc(C(F)(F)F)n2)cc(-c2ccnc(NCc3cncn3C)c2)c1` [Example 15.38, N-[3-methyl-5-(2-{[(1-methyl-1H-imidazol-5-yl)methyl]amino}pyridin-4-yl)phenyl]-4-(trifluoromethyl)pyrimidin-2-amine], the pIC50 was 6.00 to 7.00.

Regarding `Cc1cc(Nc2nccc(C(F)(F)F)n2)cc(-c2ccnc(N3CCN(C(=O)c4ccc5cc[nH]c5c4)CC3)c2)c1` [Example 15.39, N-(3-{2-[4-(1H-indol-6-ylcarbonyl)piperazin-1-yl]pyridin-4-yl}-5-methylphenyl)-4-(trifluoromethyl)pyrimidin-2-amine], the pIC50 is 6.00 to 7.00.

Take `Cc1cc(Nc2nccc(C(F)(F)F)n2)cc(-c2ccnc(NCc3cn(C)cn3)c2)c1` [Example 15.40, N-[3-methyl-5-(2-{[(1-methyl-1H-imidazol-4-yl)methyl]amino}pyridin-4-yl)phenyl]-4-(trifluoromethyl)pyrimidin-2-amine]: the pIC50 is 6.00 to 7.00.

Turning to `Cc1cc(Nc2nccc(C(F)(F)F)n2)cc(-c2ccnc(NCCN)c2)c1` [Example 15.41, N-[4-(3-methyl-5-{[4-(trifluoromethyl)pyrimidin-2-yl]amino}phenyl)pyridin-2-yl]ethane-1,2-diamine], the pIC50 was above 7.00.

Take `Cc1cc(Nc2nccc(C(F)(F)F)n2)cc(-c2ccnc(N3CCNC(=O)CC3)c2)c1` [Example 15.42, 1-[4-(3-methyl-5-{[4-(trifluoromethyl)pyrimidin-2-yl]amino}phenyl)pyridin-2-yl]-1,4-diazepan-5-one]: the pIC50 is above 7.00.

For the compound `Cc1cc(Nc2nccc(C(F)(F)F)n2)cc(-c2ccnc(NC(C)(C)C(=O)O)c2)c1` [Example 15.43, 2-methyl-N-[4-(3-methyl-5-{[4-(trifluoromethyl)pyrimidin-2-yl]amino}phenyl)pyridin-2-yl]alanine], the pIC50 is above 7.00.

For the compound `Cc1cc(Nc2nccc(C(F)(F)F)n2)cc(-c2ccnc(N3CCNC(=O)C3)c2)c1` [Example 15.44, 4-[4-(3-methyl-5-{[4-(trifluoromethyl)pyrimidin-2-yl]amino}phenyl)pyridin-2-yl]piperazin-2-one], the pIC50 is above 7.00.

As for `Cc1cc(Nc2nccc(C(F)(F)F)n2)cc(-c2ccnc(N(C)CCO)c2)c1` [Example 15.45, 2-{methyl[4-(3-methyl-5-{[4-(trifluoromethyl)pyrimidin-2-yl]amino}phenyl)pyridin-2-yl]amino}ethanol], the pIC50 was above 7.00.

As to `Cc1cc(Nc2nccc(C(F)(F)F)n2)cc(-c2ccnc(N3CCC(C(N)=O)CC3)c2)c1` [Example 15.46, 1-[4-(3-methyl-5-{[4-(trifluoromethyl)pyrimidin-2-yl]amino}phenyl)pyridin-2-yl]piperidine-4-carboxamide], the pIC50 is above 7.00.

On to `Cc1cc(Nc2nccc(C(F)(F)F)n2)cc(-c2ccnc(N3CCN(C)C(=O)C3)c2)c1` [Example 15.47, 1-methyl-4-[4-(3-methyl-5-{[4-(trifluoromethyl)pyrimidin-2-yl]amino}phenyl)pyridin-2-yl]piperazin-2-one], for which the pIC50 was above 7.00.

As for `Cc1cc(Nc2nccc(C(F)(F)F)n2)cc(-c2ccnc(N[C@@H](C)CO)c2)c1` [Example 15.48, (2S)-2-{[4-(3-methyl-5-{[4-(trifluoromethyl)pyrimidin-2-yl]amino}phenyl)pyridin-2-yl]amino}propan-1-ol], the pIC50 was above 7.00.

Turning to `Cc1cc(Nc2nccc(C(F)(F)F)n2)cc(-c2ccnc(NC(C)(CO)CO)c2)c1` [Example 15.49, 2-methyl-2-{[4-(3-methyl-5-{[4-(trifluoromethyl)pyrimidin-2-yl]amino}phenyl)pyridin-2-yl]amino}propane-1,3-diol], the pIC50 was above 7.00.

On to `Cc1cc(Nc2nccc(C(F)(F)F)n2)cc(-c2ccnc(NC3(CO)CCCC3)c2)c1` [Example 15.50, (1-{[4-(3-methyl-5-{[4-(trifluoromethyl)pyrimidin-2-yl]amino}phenyl)pyridin-2-yl]amino}cyclopentyl)methanol], for which the pIC50 is above 7.00.

In the case of `Cc1cc(Nc2nccc(C(F)(F)F)n2)cc(-c2ccnc(NC(C)(C)CO)c2)c1` [Example 15.51, 2-methyl-2-{[4-(3-methyl-5-{[4-(trifluoromethyl)pyrimidin-2-yl]amino}phenyl)pyridin-2-yl]amino}propan-1-ol], the pIC50 was above 7.00.

`Cc1cc(Nc2nccc(C(F)(F)F)n2)cc(-c2ccnc(NC[C@@H](C)O)c2)c1` [Example 15.52, (2R)-1-{[4-(3-methyl-5-{[4-(trifluoromethyl)pyrimidin-2-yl]amino}phenyl)pyridin-2-yl]amino}propan-2-ol]: the pIC50 was above 7.00.

Regarding `Cc1cc(Nc2nccc(C(F)(F)F)n2)cc(-c2ccnc(N3CC(O)C3)c2)c1` [Example 15.53, 1-[4-(3-methyl-5-{[4-(trifluoromethyl)pyrimidin-2-yl]amino}phenyl)pyridin-2-yl] azetidin-3-ol], the pIC50 was above 7.00.

As to `CC(=O)NCCNc1cc(-c2cc(C)cc(Nc3nccc(C(F)(F)F)n3)c2)ccn1` [Example 15.54, N-(2-{[4-(3-methyl-5-{[4-(trifluoromethyl)pyrimidin-2-yl]amino}phenyl)pyridin-2-yl]amino}ethyl)acetamide], the pIC50 is above 7.00.

As to `Cc1cc(Nc2nccc(C(F)(F)F)n2)cc(-c2ccnc(N3CCCC3C(N)=O)c2)c1` (centres unmarked) [Example 15.55, 1-[4-(3-methyl-5-{[4-(trifluoromethyl)pyrimidin-2-yl]amino}phenyl)pyridin-2-yl] prolinamide], the pIC50 was above 7.00.

Turning to `Cc1cc(Nc2nccc(C(F)(F)F)n2)cc(-c2ccnc(NC3(CO)CC3)c2)c1` [Example 15.56, (1-{[4-(3-methyl-5-{[4-(trifluoromethyl)pyrimidin-2-yl]amino}phenyl)pyridin-2-yl]amino}cyclopropyl)methanol], the pIC50 is above 7.00.

With `Cc1cc(Nc2nccc(C(F)(F)F)n2)cc(-c2ccnc(N(C)CCC3OCCO3)c2)c1` [Example 15.57, N-[3-(2-{[2-(1,3-dioxolan-2-yl)ethyl](methyl)amino}pyridin-4-yl)-5-methylphenyl]-4-(trifluoromethyl)pyrimidin-2-amine], the pIC50 is 6.00 to 7.00.

With `CNC(=O)C1CCN(c2cc(-c3cc(C)cc(Nc4nccc(C(F)(F)F)n4)c3)ccn2)CC1` [Example 15.58, N-methyl-1-[4-(3-methyl-5-{[4-(trifluoromethyl)pyrimidin-2-yl]amino}phenyl)pyridin-2-yl]piperidine-4-carboxamide], the pIC50 is 6.00 to 7.00.

`Cc1cc(Nc2nccc(C(F)(F)F)n2)cc(-c2ccnc(NCCC(N)=O)c2)c1` [Example 15.59, N~3~-[4-(3-methyl-5-{[4-(trifluoromethyl)pyrimidin-2-yl]amino}phenyl)pyridin-2-yl]-beta-alaninamide]: the pIC50 is above 7.00.

On to `Cc1cc(Nc2nccc(C(F)(F)F)n2)cc(-c2ccnc(NCC(C)(C)O)c2)c1` [Example 15.60, 2-methyl-1-{[4-(3-methyl-5-{[4-(trifluoromethyl)pyrimidin-2-yl]amino}phenyl)pyridin-2-yl]amino}propan-2-ol], for which the pIC50 was 6.00 to 7.00.

As to `Cc1cc(Nc2nccc(C(F)(F)F)n2)cc(-c2ccnc(N3CCN(C)CC3)c2)c1` [Example 15.61, N-{3-methyl-5-[2-(4-methylpiperazin-1-yl)pyridin-4-yl]phenyl}-4-(trifluoromethyl)pyrimidin-2-amine], the pIC50 is 6.00 to 7.00.

As for `Cc1cc(Nc2nccc(C(F)(F)F)n2)cc(-c2ccnc(NC3COC3)c2)c1` [Example 15.62, N-{3-methyl-5-[2-(oxetan-3-ylamino)pyridin-4-yl]phenyl}-4-(trifluoromethyl)pyrimidin-2-amine], the pIC50 was 6.00 to 7.00.

Take `Cc1cc(Nc2nccc(C(F)(F)F)n2)cc(-c2ccnc(N3CCN(S(C)(=O)=O)CC3)c2)c1` [Example 15.63, N-(3-methyl-5-{2-[4-(methylsulfonyl)piperazin-1-yl]pyridin-4-yl}phenyl)-4-(trifluoromethyl)pyrimidin-2-amine]: the pIC50 is 6.00 to 7.00.

For `CCN1CCN(c2cc(-c3cc(C)cc(Nc4nccc(C(F)(F)F)n4)c3)ccn2)CC1` [Example 15.64, N-{3-[2-(4-ethylpiperazin-1-yl)pyridin-4-yl]-5-methylphenyl}-4-(trifluoromethyl)pyrimidin-2-amine], the pIC50 is 6.00 to 7.00.

For `CC(=O)NCCN(C)c1cc(-c2cc(C)cc(Nc3nccc(C(F)(F)F)n3)c2)ccn1` [Example 15.65, N-(2-{methyl[4-(3-methyl-5-{[4-(trifluoromethyl)pyrimidin-2-yl]amino}phenyl)pyridin-2-yl]amino}ethyl)acetamide], the pIC50 was 6.00 to 7.00.

In the case of `Cc1cc(Nc2nccc(C(F)(F)F)n2)cc(-c2ccnc(N[C@@H]3CCC(=O)NC3)c2)c1` [Example 15.66, (5R)-5-{[4-(3-methyl-5-{[4-(trifluoromethyl)pyrimidin-2-yl]amino}phenyl)pyridin-2-yl]amino}piperidin-2-one], the pIC50 is above 7.00.

(Values after patent US9376418B2, “Substituted pyridine spleen tyrosine kinase (SYK) inhibitors” (Merck Sharp & Dohme Corp., priority 2012, dated 2016).)
